Laboratory results from publication PMC11726555, “Photoswitchable Diazocine Derivative for Adenosine A3 Receptor Activation in Psoriasis” (Journal of the American Chemical Society, 2024).

How the values were obtained:
Assay type in all cases: cell-based
[1] = biological target: T1, A1R (adenosine A1 receptor) (Homo sapiens, UniProt P30542); experiment: cAMP accumulation assay in HEK-293 cells expressing A1R (reference agonist)
T1 construct: gene ADORA1
T1 sequence (P30542 1-326): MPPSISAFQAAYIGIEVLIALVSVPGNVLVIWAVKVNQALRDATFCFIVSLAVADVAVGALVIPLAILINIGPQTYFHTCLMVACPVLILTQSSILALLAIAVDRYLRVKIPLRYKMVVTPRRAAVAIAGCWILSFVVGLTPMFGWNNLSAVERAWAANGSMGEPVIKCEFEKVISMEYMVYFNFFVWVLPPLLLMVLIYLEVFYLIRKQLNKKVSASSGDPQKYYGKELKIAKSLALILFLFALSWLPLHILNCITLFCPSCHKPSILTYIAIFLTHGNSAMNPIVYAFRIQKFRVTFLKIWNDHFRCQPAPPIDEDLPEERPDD

[2] = biological target: T2, adenosine A3 receptor (A3R) (Homo sapiens, UniProt P0DMS8); experiment: cAMP accumulation assay in HEK-293 cells expressing A3R (reference agonist)
T2 construct: gene ADORA3
T2 sequence (P0DMS8 1-318): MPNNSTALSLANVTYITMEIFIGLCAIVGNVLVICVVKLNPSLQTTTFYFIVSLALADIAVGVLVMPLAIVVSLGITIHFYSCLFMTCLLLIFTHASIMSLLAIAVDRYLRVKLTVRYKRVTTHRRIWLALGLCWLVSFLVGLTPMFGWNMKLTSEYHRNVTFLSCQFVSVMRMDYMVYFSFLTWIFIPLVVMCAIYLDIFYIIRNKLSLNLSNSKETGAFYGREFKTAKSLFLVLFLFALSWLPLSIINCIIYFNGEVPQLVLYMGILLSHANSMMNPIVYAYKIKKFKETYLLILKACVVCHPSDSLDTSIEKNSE

[3] = biological target: T2, adenosine A3 receptor (A3R); experiment: inhibition of forskolin-stimulated cAMP accumulation in HEK-293 cells expressing A3R (partial agonist, Emax […]); conditions: read-out: IC50 (the source's name)

OC[C@H]1O[C@@H](n2cnc3c(NC4CCCC4)ncnc32)[C@H](O)[C@@H]1O [CPA]
cAMP accumulation assay in HEK-293 cells expressing A1R (reference agonist) [1]: CPA (N^6-cyclopentyladenosine, selective A1R agonist) induced the maximum A3R- and A1R-mediated inhibition of cAMP accumulation

CNC(=O)[C@@]12C[C@@H]1[C@@H](n1cnc3c(NCc4cccc(Cl)c4)nc(C#Cc4ccc(F)c(F)c4)nc31)[C@H](O)[C@@H]2O [MRS5698, (1S,2R,3S,4R,5S)-4-(6-((3-chlorobenzyl)amino)-2-((3,4-difluorophenyl)-ethynyl)-9H-purin-9-yl)-2,3-dihydroxy-N-methylbicyclo[3.1.0]hexane-1-carboxamide]
cAMP accumulation assay in HEK-293 cells expressing A3R (reference agonist) [2]: treatment with MRS5698 and CPA (N^6-cyclopentyladenosine, selective A1R agonist) induced the maximum A3R- and A1R-mediated inhibition of cAMP accumulation

CNC(=O)[C@H]1O[C@@H](n2cnc3c(NCc4ccc5c(c4)/N=N/c4ccccc4CC5)ncnc32)[C@H](O)[C@@H]1O [compound 4, E-MRS7787]
EC50 [3]: 31 nM
